CNC(=O)c1cc(Oc2ccc(NC(=O)Nc3ccc(Cl)c(C(F)(F)F)c3)cc2)ccn1
solubility (mole fraction)
Details | 273.15 K | 278.15 K | 283.15 K | 288.15 K | 293.15 K | 298.15 K | 303.15 K | 308.15 K | 313.15 K
in 2-butanone | 0.00666 | 0.00725 | 0.0079 | 0.00856 | 0.00929 | 0.0101 | 0.0111 | 0.0122 | 0.0133
in acetone | 0.00227 | 0.00259 | 0.00293 | 0.00329 | 0.00369 | 0.00405 | 0.00448 | 0.00488 | 0.00558
in acetonitrile | 0.000162 | 0.000194 | 0.000239 | 0.000282 | 0.000334 | 0.000396 | 0.000476 | 0.000571 | 0.000678
in cyclohexanone | 0.0114 | 0.0124 | 0.0138 | 0.0153 | 0.0169 | 0.0189 | 0.0209 | 0.0229 | 0.0251
in ethanol | 0.000645 | 0.000727 | 0.000817 | 0.000922 | 0.00103 | 0.00114 | 0.00127 | 0.0014 | 0.00155
in ethyl acetate | 0.000835 | 0.001 | 0.00119 | 0.00142 | 0.00165 | 0.00192 | 0.00222 | 0.00255 | 0.00293
in isobutanol | 0.000433 | 0.000498 | 0.00058 | 0.000661 | 0.000755 | 0.000854 | 0.000972 | 0.0011 | 0.00126
in isopropanol | 0.000498 | 0.000573 | 0.000665 | 0.000761 | 0.000866 | 0.000975 | 0.0011 | 0.00123 | 0.00138
in methanol | 0.000385 | 0.000422 | 0.000459 | 0.000509 | 0.000564 | 0.000628 | 0.000701 | 0.000769 | 0.000848
in n-butanol | 0.000726 | 0.000817 | 0.000919 | 0.00103 | 0.00116 | 0.0013 | 0.00145 | 0.00162 | 0.00182
in n-propanol | 0.000756 | 0.00086 | 0.000978 | 0.00111 | 0.00126 | 0.00143 | 0.00162 | 0.00183 | 0.00207
in toluene | 0.00197 | 0.00218 | 0.00234 | 0.00255 | 0.00282 | 0.00313 | 0.00352 | 0.00382 | 0.00428

Source: BigSolDB 2.1
